Test system: AMV (avian myeloblastosis virus) reverse transcriptase
Assay: AMV reverse transcriptase inhibition ([3H]dTTP incorporation)
Type: biochemical
Conditions: 1 Inhibition unit = activity which inhibits 1 unit of reverse transcriptase activity to 50%
Description: 1 unit of AMV (avian myeloblastosis virus) reverse transcriptase was mixed with 50 μl of a mixture (50 mM tris hydrochloride, pH 8.4, 2 mM dithiothreitol, 100 mM KCl, 10 mM MgCl2, 0.1% triton X-100, 50 μg poly (rA)-oligo (dT)/ml, 1.25 μCi [^3 H] dTTP (57 Ci/mmol)) and with various concentration of various sulfated polysaccharides.
The reaction mixtures were incubated and stopped by the addition of 5% trichloroacetic acid. Precipitates were collected on glass fiber filters and their radio activities were determined by a liquid scintilation counter.
1 Inhibition unit is defined as an activity which inhibits 1 unit of reverse transcriptase activity to 50%.

Dermatan sulfate
Inhibition Unit/mg: 210 Inhibition Unit/mg

Heparin
Inhibition Unit/mg: 830 Inhibition Unit/mg

κ-Carrageenan
Inhibition Unit/mg: 30200 Inhibition Unit/mg

l-Carrageenan
Inhibition Unit/mg: 35810 Inhibition Unit/mg

Karatan sulfate
Inhibition Unit/mg: 30 Inhibition Unit/mg

Heparan sulfate
Inhibition Unit/mg: 50 Inhibition Unit/mg

λ-Carrageenan
Inhibition Unit/mg: 68320 Inhibition Unit/mg

Chondroitin sulfate
Inhibition Unit/mg: 30 Inhibition Unit/mg

From patent publication US5878747A, “Condom coated with acidic polysaccharides” (Fuji Latex Co., Ltd., priority 1993, dated 1999)
